Assay results published in paper PMC5847527, “Identification of a novel 2-oxindole fluorinated derivative as in vivo antitumor agent for prostate cancer acting via AMPK activation” (Scientific Reports, 2018).

Tested on: LNCaP cells
Test: Cell cycle analysis by flow cytometry (Propidium Iodide), LNCaP
Assay type: cell-based, human
Settings: 24 h, 25 μM and 50 μM
Description: For that, we treated PC-3 and LNCaP cells with 25 μM and 50 μM of compound 8c for 24 h and performed cell cycle analysis by flow cytometry using Propidium Iodide (PI). […] It is worthy to note that when PC-3 cells were treated with compound 8c, 80% of cells were in subG0 phase (Fig. 4A).
Figure 4 Cell Cycle analysis in 8c-treated prostate cancer cells. (A) PC-3 and LNCaP cells were treated with compound 8c for 24 hours and cell cycle analysis was analyzed by flow cytometry using Propidium Iodide (PI). Percentage of cells in subG0, G1, S, and G2/M phases is indicated in the histogram. (B) Levels of Cyclin D1, p-p53, p53, p21 and cleaved Caspase 3 (17 kDa fragment) were determined by Western blot. Upper panel, representative Western blot of two different experiments. β-tubulin (β-Tub) serves as a loading control. Lower panel, the densitometric analyses of bands represented as the mean ± SD of the two different experiments. *p < 0.05 and **p < 0.01 compared with the control group by the Student’s t-test.
Flow cytometry was used to detect the distribution of cell cycle. After being cultivated with the treatment, 10^5 cells in 35 mm culture dish were harvested in 0.35% trypsin, collected and fixed with 70% cold ethanol at 4 °C for 1 h. Then, cells were centrifuged at 1500 g for 5 min and incubated in 0.5 ml PBS containing 0.1 mg/ml RNase for 30 min at 37 °C. […]

O=C1Nc2ccccc2C1(F)Cc1ccc(-c2ccccc2)o1 (stereo not shown) [Compound 8c, 3-fluoro-3-((5-phenylfuran-2-yl)methyl)indolin-2-one]
subG0 cells: increase in subG0 cells
